Laboratory results as given in US6440990B1, “O-alkylated rapamycin derivatives and their use, particularly as immunosuppressants” (Novartis AG, priority 1992, dated 2002).

Legend:
[1] = Standard in vitro assays of immunosuppressivity in comparison to FK506 and rapamycin; assay type: cell-based
Text: This can be shown in standard in vitro assays in comparison to FK506 and rapamycin. […] Nonimmunosuppressivity can also be shown in the in vivo models 1-7 above.

[2] = tested on: Balb/c spleen cells stimulated with irradiated CBA spleen cells; details: cited from earlier work
IL-2 transcription = details: IL-2 reporter gene assay; cited from earlier work
[3] = tested on: interleukin-6 (IL-6)-dependent mouse hybridoma cell line; details: cited from earlier work

Compound	immunosuppressivity (in words) [1]	inhibition of the mixed lymphocyte reaction (in words) [2]	inhibition of IL-2 transcription (in words) (IL-2 transcription)	inhibition of IL-6 dependent T-cell proliferation (in words) [3]
CO[C@H]1C[C@@H]2CC[C@@H](C)[C@@](O)(O2)C(=O)C(=O)N2CCCC[C@H]2C(=O)O[C@H]([C@H](C)C[C@@H]2CC[C@@H](O)[C@H](OC)C2)CC(=O)[C@H](C)/C=C(\C)[C@@H](OC)[C@@H](OC)C(=O)[C@H](C)C[C@H](C)/C=C/C=C/C=C/1C [Example 21, 28-O-Methyl-rapamycin]	not immunosuppressive			
Rapamycin		very potent inhibitors	not active	strongly inhibits
